System: MV-4-11 cells
Assay: Gene expression microarray analysis (Affymetrix PrimeView) and GSEA
Format: cell-based, human
Set-up: RFU PODN (11730768_x_at) / Fold change /veh PODN (11730768_x_at) / RFU LINC00158 (11744669_a_at) / Fold change /veh LINC00158 (11744669_a_at) / RFU DUSP10 (11751237_a_at) / Fold change /veh DUSP10 (11751237_a_at) / RFU ID3 (11757404_x_at) / Fold change /veh ID3 (11757404_x_at) / RFU PLEKHG5 (11737974_s_at) / Fold change /veh PLEKHG5 (11737974_s_at) / RFU LRRC4B (11730491_at) / Fold change /veh LRRC4B (11730491_at) / RFU GIMAP4 (11747438_a_at) / Fold change /veh GIMAP4 (11747438_a_at) / RFU KRT8 (11758183_x_at) / Fold change /veh KRT8 (11758183_x_at) / RFU CNN1 (11734310_a_at) / Fold change /veh CNN1 (11734310_a_at) / RFU VPS37D (11726825_at) / Fold change /veh VPS37D (11726825_at) / RFU C10orf10 (11716522_x_at) / Fold change /veh C10orf10 (11716522_x_at) / RFU KIR2DL2 /// KIR2DL4 /// KIR2DL5A /// KIR2DL5B /// KIR2DS1 /// KIR2DS2 /// KIR2DS3 /// KIR2DS4 /// KIR3DL3 /// KIR3DL3 /// KIR3DS1 (11738374_at) / Fold change /veh KIR2DL2 /// KIR2DL4 /// KIR2DL5A /// KIR2DL5B /// KIR2DS1 /// KIR2DS2 /// KIR2DS3 /// KIR2DS4 /// KIR3DL3 /// KIR3DL3 /// KIR3DS1 (11738374_at) / RFU C1QL1 (11718748_at) / Fold change /veh C1QL1 (11718748_at) / RFU TMPRSS4 (11747572_a_at) / Fold change /veh TMPRSS4 (11747572_a_at) / RFU HAMP (11756126_x_at) / Fold change /veh HAMP (11756126_x_at) / RFU RNFT2 (11725882_a_at) / Fold change /veh RNFT2 (11725882_a_at) / RFU NR4A2 (11747474_a_at) / Fold change /veh NR4A2 (11747474_a_at) / RFU ABCC12 (11746883_a_at) / Fold change /veh ABCC12 (11746883_a_at) / RFU TMEM136 (11760407_x_at) / Fold change /veh TMEM136 (11760407_x_at) / RFU CLDN22 /// WWC2 (11732394_at) / Fold change /veh CLDN22 /// WWC2 (11732394_at) / RFU HLA-DPB1 (11760878_x_at) / Fold change /veh HLA-DPB1 (11760878_x_at) / RFU SPINT1 (11716480_a_at) / Fold change /veh SPINT1 (11716480_a_at) / RFU GAP43 (11754022_s_at) / Fold change /veh GAP43 (11754022_s_at) / RFU A4GNT (11735810_at) / Fold change /veh A4GNT (11735810_at) / RFU PRB3 (11715151_x_at) / Fold change /veh PRB3 (11715151_x_at) / RFU TUBB4B (11761932_at) / Fold change /veh TUBB4B (11761932_at) / RFU CAPN14 (11732068_a_at) / Fold change /veh CAPN14 (11732068_a_at) / RFU TMCC2 (11721928_a_at) / Fold change /veh TMCC2 (11721928_a_at) / RFU IRGQ (11745062_a_at) / Fold change /veh IRGQ (11745062_a_at) / RFU FAM174B (11720279_a_at) / Fold change /veh FAM174B (11720279_a_at) / RFU TMPRSS4 (11748680_a_at) / Fold change /veh TMPRSS4 (11748680_a_at) / RFU FAM212B (11763350_a_at) / Fold change /veh FAM212B (11763350_a_at) / RFU PLEKHG5 (11743358_a_at) / Fold change /veh PLEKHG5 (11743358_a_at) / RFU ZSCAN30 (11745921_a_at) / Fold change /veh ZSCAN30 (11745921_a_at) / RFU CMKLR1 (11741424_a_at) / Fold change /veh CMKLR1 (11741424_a_at) / RFU LOC101060620 /// MAPK8IP1 (11723275_at) / Fold change /veh LOC101060620 /// MAPK8IP1 (11723275_at) / RFU SPTSSB (11747773_x_at) / Fold change /veh SPTSSB (11747773_x_at) / RFU PRSS12 (11739890_at) / Fold change /veh PRSS12 (11739890_at) / RFU BIN1 (11741810_x_at) / Fold change /veh BIN1 (11741810_x_at) / RFU WNT11 (11732464_a_at) / Fold change /veh WNT11 (11732464_a_at) / RFU C10orf10 (11716521_a_at) / Fold change /veh C10orf10 (11716521_a_at) / RFU C5orf56 (11738089_at) / Fold change /veh C5orf56 (11738089_at) / RFU CYB561 (11721691_x_at) / Fold change /veh CYB561 (11721691_x_at) / RFU ANKRD19P (11752326_a_at) / Fold change /veh ANKRD19P (11752326_a_at) / RFU OR2T12 /// OR2T33 /// OR2T8 (11738714_s_at) / Fold change /veh OR2T12 /// OR2T33 /// OR2T8 (11738714_s_at) / RFU VCAN (11748164_a_at) / Fold change /veh VCAN (11748164_a_at) / RFU JSRP1 (11732532_at) / Fold change /veh JSRP1 (11732532_at) / RFU KRTAP10-11 (11738290_x_at) / Fold change /veh KRTAP10-11 (11738290_x_at) / RFU MYO3A (11730013_a_at) / Fold change /veh MYO3A (11730013_a_at) / RFU EBF3 (11725865_a_at) / Fold change /veh EBF3 (11725865_a_at) / RFU CAMK2N1 (11719241_x_at) / Fold change /veh CAMK2N1 (11719241_x_at) / RFU C5orf56 (11738088_a_at) / Fold change /veh C5orf56 (11738088_a_at) / RFU OLFML3 (11715873_a_at) / Fold change /veh OLFML3 (11715873_a_at) / RFU LOC100653217 /// NTM (11731650_a_at) / Fold change /veh LOC100653217 /// NTM (11731650_a_at) / RFU MAPK11 (11762145_a_at) / Fold change /veh MAPK11 (11762145_a_at) / RFU FIZ1 (11724087_x_at) / Fold change /veh FIZ1 (11724087_x_at) / RFU OASL (11726364_x_at) / Fold change /veh OASL (11726364_x_at) / RFU SOX15 (11748057_x_at) / Fold change /veh SOX15 (11748057_x_at) / RFU CD79A (11719716_a_at) / Fold change /veh CD79A (11719716_a_at) / RFU HIST1H1D (11736915_at) / Fold change /veh HIST1H1D (11736915_at) / RFU CASKIN2 (11723855_a_at) / Fold change /veh CASKIN2 (11723855_a_at) / RFU LOC730098 (11760151_x_at) / Fold change /veh LOC730098 (11760151_x_at) / RFU OR4N2 (11742367_at) / Fold change /veh OR4N2 (11742367_at) / RFU PRRT2 (11749266_a_at) / Fold change /veh PRRT2 (11749266_a_at) / RFU SNX32 (11753110_a_at) / Fold change /veh SNX32 (11753110_a_at) / RFU CDHR5 (11726645_a_at) / Fold change /veh CDHR5 (11726645_a_at) / RFU RCAN1 (11760418_a_at) / Fold change /veh RCAN1 (11760418_a_at) / RFU FAM167A (11723789_a_at) / Fold change /veh FAM167A (11723789_a_at) / RFU FAM26E (11764081_at) / Fold change /veh FAM26E (11764081_at) / RFU ISYNA1 (11749810_s_at) / Fold change /veh ISYNA1 (11749810_s_at) / RFU ACY1 (11761880_at) / Fold change /veh ACY1 (11761880_at) / RFU 11764098_at / Fold change /veh 11764098_at / RFU SAMD14 (11745864_x_at) / Fold change /veh SAMD14 (11745864_x_at) / RFU NPB (11741838_a_at) / Fold change /veh NPB (11741838_a_at) / RFU TMPRSS6 (11731388_a_at) / Fold change /veh TMPRSS6 (11731388_a_at) / RFU KRTAP10-2 (11738614_at) / Fold change /veh KRTAP10-2 (11738614_at) / RFU ARHGAP8 /// PRR5-ARHGAP8 (11727945_x_at) / Fold change /veh ARHGAP8 /// PRR5-ARHGAP8 (11727945_x_at) / RFU KRTAP5-7 /// NADSYN1 (11734609_at) / Fold change /veh KRTAP5-7 /// NADSYN1 (11734609_at) / RFU RASL12 (11751679_a_at) / Fold change /veh RASL12 (11751679_a_at) / RFU CDKN2B (11736163_a_at) / Fold change /veh CDKN2B (11736163_a_at) / RFU PRF1 (11729649_at) / Fold change /veh PRF1 (11729649_at) / RFU, ZNF638 /// ZNF638-IT1 / Fold change vs veh, ZNF638 /// ZNF638-IT1 / RFU, PANK3 / Fold change vs veh, PANK3 / RFU, SH3YL1 / Fold change vs veh, SH3YL1 / RFU, ZEB2 / Fold change vs veh, ZEB2 / RFU, NRIP1 / Fold change vs veh, NRIP1 / RFU, PTTG1IP / Fold change vs veh, PTTG1IP / RFU, CAPN2 / Fold change vs veh, CAPN2 / RFU, MED14 / Fold change vs veh, MED14 / RFU, SNORA58 / Fold change vs veh, SNORA58 / RFU, C1orf63 / Fold change vs veh, C1orf63 / RFU, LRRFIP1 / Fold change vs veh, LRRFIP1 / RFU, NDUFAF7 / Fold change vs veh, NDUFAF7 / RFU, SLC12A2 / Fold change vs veh, SLC12A2 / RFU, IBTK / Fold change vs veh, IBTK / RFU, ESF1 / Fold change vs veh, ESF1 / Fold change vs veh, TMEM50B / RFU, TAOK1 / Fold change vs veh, TAOK1 / RFU, ACBD3 / Fold change vs veh, ACBD3 / RFU, TMA16 / Fold change vs veh, TMA16 / RFU, RWDD3 / Fold change vs veh, RWDD3 / RFU, BCAT1 / Fold change vs veh, BCAT1 / RFU, EDEM3 / Fold change vs veh, EDEM3 / RFU, TMEM33 / Fold change vs veh, TMEM33 / RFU, WDR75 / Fold change vs veh, WDR75 / RFU, AHCTF1 / Fold change vs veh, AHCTF1 / RFU, TFRC / Fold change vs veh, TFRC / RFU, ZDHHC17 / Fold change vs veh, ZDHHC17 / RFU, NOM1 / Fold change vs veh, NOM1 / RFU, ARL8B / Fold change vs veh, ARL8B / RFU, ZBTB11 / Fold change vs veh, ZBTB11 / RFU, TAMM41 / Fold change vs veh, TAMM41 / RFU, KIAA1704 /// LOC100996395 / Fold change vs veh, KIAA1704 /// LOC100996395 / RFU, ING1 / Fold change vs veh, ING1 / RFU, TRMT61B / Fold change vs veh, TRMT61B / RFU, FUBP3 / Fold change vs veh, FUBP3 / RFU, TP53 / Fold change vs veh, TP53 / RFU, TNKS2 / Fold change vs veh, TNKS2 / RFU, ZFP14 / Fold change vs veh, ZFP14 / RFU, ACTR2 / Fold change vs veh, ACTR2 / RFU, PPP3R1 / Fold change vs veh, PPP3R1 / RFU, PIK3R1 / Fold change vs veh, PIK3R1 / RFU, HNRNPA1 / Fold change vs veh, HNRNPA1 / RFU, RNF170 / Fold change vs veh, RNF170 / RFU, ZNF28 / Fold change vs veh, ZNF28 / RFU, RNGTT / Fold change vs veh, RNGTT / RFU, OGT / Fold change vs veh, OGT / RFU, BRD1 / Fold change vs veh, BRD1 / RFU, MARS / Fold change vs veh, MARS / RFU, ZNF655 / Fold change vs veh, ZNF655 / RFU, FAHD1 / Fold change vs veh, FAHD1 / RFU, BDP1 / Fold change vs veh, BDP1 / RFU, LRRCC1 / Fold change vs veh, LRRCC1 / RFU, ARID1A / Fold change vs veh, ARID1A / RFU, ZNF146 / Fold change vs veh, ZNF146 / RFU, ZNF330 / Fold change vs veh, ZNF330 / RFU, GPN3 / Fold change vs veh, GPN3 / RFU, C9orf123 / Fold change vs veh, C9orf123 / RFU, N4BP2L2 / Fold change vs veh, N4BP2L2 / RFU, ARFIP1 / Fold change vs veh, ARFIP1 / RFU, FAM179B / Fold change vs veh, FAM179B / RFU, BCL10 / Fold change vs veh, BCL10 / RFU, UHRF1BP1L / Fold change vs veh, UHRF1BP1L / RFU, BET1 / Fold change vs veh, BET1 / RFU, CNOT2 / Fold change vs veh, CNOT2 / RFU, ZNF268 / Fold change vs veh, ZNF268 / Fold change vs veh, ZNF507 / RFU, DGCR2 / Fold change vs veh, DGCR2 / RFU, WDSUB1 / Fold change vs veh, WDSUB1 / Fold change vs veh, HSP90B1 /// MIR3652 / RFU, ADSS / Fold change vs veh, ADSS / RFU, GK / Fold change vs veh, GK / RFU, ZNF148 / Fold change vs veh, ZNF148 / RFU, TAF9 / Fold change vs veh, TAF9 / RFU, SLC1A5 / Fold change vs veh, SLC1A5 / RFU, SLMO2 / Fold change vs veh, SLMO2 / RFU, ABCC4 / Fold change vs veh, ABCC4 / RFU, LOC101060439 /// RAP1B / Fold change vs veh, LOC101060439 /// RAP1B / RFU, RFX7 / Fold change vs veh, RFX7 / RFU, GTPBP10 / Fold change vs veh, GTPBP10 / RFU, CNEP1R1 / Fold change vs veh, CNEP1R1 / RFU, BIVM-ERCC5 /// ERCC5 / Fold change vs veh, BIVM-ERCC5 /// ERCC5 / RFU, ILF3 / Fold change vs veh, ILF3 / RFU 11762660_at / Fold change /veh 11762660_at / RFU VCAN (11757783_s_at) / Fold change /veh VCAN (11757783_s_at) / RFU DDX43 (11728927_at) / Fold change /veh DDX43 (11728927_at) / RFU KRT8 (11758188_x_at) / Fold change /veh KRT8 (11758188_x_at) / RFU NKD1 (11759106_at) / Fold change /veh NKD1 (11759106_at) / RFU SRD5A1 (11742802_a_at) / Fold change /veh SRD5A1 (11742802_a_at) / RFU TPSAB1 /// TPSB2 (11721975_s_at) / Fold change /veh TPSAB1 /// TPSB2 (11721975_s_at) / RFU GSTM3 (11746129_a_at) / Fold change /veh GSTM3 (11746129_a_at) / RFU IL23R (11737362_x_at) / Fold change /veh IL23R (11737362_x_at) / RFU TMEM51 (11727254_a_at) / Fold change /veh TMEM51 (11727254_a_at) / RFU PIWIL2 (11732686_x_at) / Fold change /veh PIWIL2 (11732686_x_at) / RFU ORM1 (11744905_x_at) / Fold change /veh ORM1 (11744905_x_at) / RFU CCDC152 (11743942_at) / Fold change /veh CCDC152 (11743942_at) / RFU ECM1 (11717891_a_at) / Fold change /veh ECM1 (11717891_a_at) / RFU IL23R (11748794_a_at) / Fold change /veh IL23R (11748794_a_at) / RFU TNFAIP8L3 (11732012_x_at) / Fold change /veh TNFAIP8L3 (11732012_x_at) / RFU MBOAT4 (11741988_at) / Fold change /veh MBOAT4 (11741988_at) / RFU 11764193_at / Fold change /veh 11764193_at / RFU TMEM53 (11763286_at) / Fold change /veh TMEM53 (11763286_at) / RFU MAGEB2 (11727129_at) / Fold change /veh MAGEB2 (11727129_at) / RFU TMEM200A (11744735_a_at) / Fold change /veh TMEM200A (11744735_a_at) / RFU CCDC152 (11751479_a_at) / Fold change /veh CCDC152 (11751479_a_at) / RFU FAM211A (11726209_a_at) / Fold change /veh FAM211A (11726209_a_at) / RFU RGS16 (11746705_a_at) / Fold change /veh RGS16 (11746705_a_at) / RFU VCAN (11755009_s_at) / Fold change /veh VCAN (11755009_s_at) / RFU RHOB (11743442_s_at) / Fold change /veh RHOB (11743442_s_at) / RFU RGS16 (11720943_a_at) / Fold change /veh RGS16 (11720943_a_at) / RFU RGS16 (11720944_at) / Fold change /veh RGS16 (11720944_at) / RFU, VPS4B / Fold change vs veh, VPS4B / RFU, CREB1 / Fold change vs veh, CREB1 / RFU, DNAJC13 / Fold change vs veh, DNAJC13 / RFU, GNAQ / Fold change vs veh, GNAQ / RFU, CDK5R1 / Fold change vs veh, CDK5R1 / RFU, ZRANB3 / Fold change vs veh, ZRANB3 / RFU, CUL4A / Fold change vs veh, CUL4A / RFU, CCNY / Fold change vs veh, CCNY / RFU, UFL1 / Fold change vs veh, UFL1 / RFU, COG3 / Fold change vs veh, COG3 / RFU, DIAPH2 / Fold change vs veh, DIAPH2 / RFU, SKA2 / Fold change vs veh, SKA2 / RFU, AFF3 / Fold change vs veh, AFF3 / RFU, LMF1 / Fold change vs veh, LMF1 / RFU, IPO11 / Fold change vs veh, IPO11 / RFU, DFFB / Fold change vs veh, DFFB / RFU, FOXP1 / Fold change vs veh, FOXP1 / RFU, CARD8 / Fold change vs veh, CARD8 / RFU, STRN3 / Fold change vs veh, STRN3 / RFU, ADK / Fold change vs veh, ADK / RFU, RASSF2 / Fold change vs veh, RASSF2 / RFU, WIPF1 / Fold change vs veh, WIPF1 / RFU, LARP1B / Fold change vs veh, LARP1B / RFU, RASA1 / Fold change vs veh, RASA1 / RFU, RB1 / Fold change vs veh, RB1 / RFU, PPFIA1 / Fold change vs veh, PPFIA1 / RFU, MAT2A / Fold change vs veh, MAT2A / RFU, CCT5 / Fold change vs veh, CCT5 / RFU, WDR92 / Fold change vs veh, WDR92 / RFU, CUX1 / Fold change vs veh, CUX1 / RFU, TTC7A / Fold change vs veh, TTC7A / RFU, TMEM135 / Fold change vs veh, TMEM135 / RFU, DEPTOR / Fold change vs veh, DEPTOR / RFU, CPM / Fold change vs veh, CPM / RFU, DNAJB6 / Fold change vs veh, DNAJB6 / RFU, CACNA2D3 / Fold change vs veh, CACNA2D3 / RFU, DTX4 / Fold change vs veh, DTX4 / RFU, TFCP2 / Fold change vs veh, TFCP2 / RFU, GMCL1 /// GMCL1P1 / Fold change vs veh, GMCL1 /// GMCL1P1 / RFU, AEBP2 / Fold change vs veh, AEBP2 / RFU, SNHG1 /// SNORD22 /// SNORD25 /// SNORD26 /// SNORD27 /// SNORD28 /// SNORD29 /// SNORD31 / Fold change vs veh, SNHG1 /// SNORD22 /// SNORD25 /// SNORD26 /// SNORD27 /// SNORD28 /// SNORD29 /// SNORD31 / Fold change (Aza/veh), C12orf56 (ProbeSet 11735607_a_at) / Fold change (ACY-1035/veh), C12orf56 (ProbeSet 11735607_a_at) / Fold change (Aza/veh), FGFR1OP (ProbeSet 11751329_s_at) / Fold change (ACY-1035/veh), FGFR1OP (ProbeSet 11751329_s_at) / Fold change (Aza/veh), VPS36 (ProbeSet 11739960_a_at) / Fold change (ACY-1035/veh), VPS36 (ProbeSet 11739960_a_at) / RFU SYPL1 (11715823_x_at) / Fold change /veh SYPL1 (11715823_x_at) / RFU IGFBP7 (11715501_s_at) / Fold change /veh IGFBP7 (11715501_s_at) / RFU REEP3 (11722064_at) / Fold change /veh REEP3 (11722064_at) / RFU IGLL1 (11728026_x_at) / Fold change /veh IGLL1 (11728026_x_at): dose or concentration left out as unconfirmed
Conditions: MV-4-11 cells, 48 hours

SMILES: Nc1ncn([C@@H]2O[C@H](CO)[C@@H](O)[C@H]2O)c(=O)n1 [azacitidine]
- RFU IL23R (11737362_x_at): 11.80 RFU
